For experiment [1], the system named is NIH 3T3, A-431, MDA-MB-468, PANC-1, human keratinocytes. The experiment in a line: Growth of non-hematopoietic cell lines. To be noted: at high concentrations at which Jurkat and PBMC growth was strongly inhibited. Type of experiment: cell-based. The procedure:
The inhibitor-treated cultures and controls were fixed in glutaraldehyde, 0.05% final concentration, for 10 min at room temperature. After washing, the plates were stained with 0.1% methylene blue in 0.1 M borate buffer, for 60 min at room temperature. The plates were rigorously washed to remove excess dye and dried. The dye taken up by cells was eluted in 0.1N HCl for 60 min at 37° C., and the OD of the solution was read at 620 nm. In preliminary titration experiments, linear readings were obtained for 1×10^3 to 4×10^4 cells/well.
To characterize the mode of action of 2 (S101) in more detail, we first examined whether 2 inhibits non-hematopoietic cell lines. We studied the effect of 2 on the growth of four cell lines: NIH 3T3 (mouse embryonic fibroblasts), A-431 (human vulval carcinoma cells), MDA-MB-468 (human breast carcinoma cells), and PANC-1 (human pancreatic carcinoma cells) (FIGS. 1A-B). We also tested the inhibitors on human keratinocytes. […] We also examined the effect of 2 on BrdU uptake by stimulated and non-stimulated PC-3 (human prostate cancer), HEK293 (human embryonic kidney), NIH-3T3, A375 (human malignant melanoma), and MDA-MB-231 (human breast adenocarcinoma).

The test system of another experiment is A375. Kind of experiment: A375 proliferation, BrdU uptake. The experiment is classed as cell-based. To be noted: Homo sapiens, A-375. The procedure: (§1) Cells were depleted of fetal calf serum (FCS) for 12 hours. They were then stimulated to proliferate by addition of ConA (10 μg/ml) for PBMC from healthy individuals and for Jurkat cells, FCS (10%) for HEK293 and A375 cells, PDGF (30 ng/ml) for NIH 3T3 cells, and EGF (30 ng/ml) for MDA-MB-231, Cells (1×10^5) were cultured in 96-well plates for 3 days in the presence or absence of inhibitors at the concentrations specified in the text. Each condition was tested in duplicate wells.
(§2) Proliferation was assessed by BrdU incorporation using a colorimetric ELISA kit (Roche, Germany). Subsequent to labeling with 10 μM BrdU, DNA was denatured and the cells were incubated with anti-BrdU-POD, prior to the addition of colorimetric substrate (TMB). The reaction product was quantified by measuring absorbance at 450 nm in an ELISA plate reader (ELx800 BIO-TEK Instruments Inc.).
To characterize the mode of action of 2 (S101) in more detail, we first examined whether 2 inhibits non-hematopoietic cell lines. We studied the effect of 2 on the growth of four cell lines: NIH 3T3 (mouse embryonic fibroblasts), A-431 (human vulval carcinoma cells), MDA-MB-468 (human breast carcinoma cells), and PANC-1 (human pancreatic carcinoma cells) (FIGS. 1A-B). We also tested the inhibitors on human keratinocytes. […]

A further experiment concerns PBMC. The experiment in a line: PBMC proliferation, BrdU incorporation. Type of experiment: cell-based, human. To be noted: Homo sapiens. Here is the method: Blood samples were taken from healthy donors and loaded on a Ficoll density gradient to purify the PBMC population. T cells were purified by human anti-CD3 using an autoMACS instrument (Miltenyi Biotec, Bergisch-Gladbach, Germany), according to the manufacturer's instructions. The identity of T cells was confirmed by flow cytometry, as they stained positive for CD3. Cells were stimulated with ConA (10 μg/ml), ODN2006 (0.5 μg/ml; Enzo Life Sciences), or LPS (50 μg/ml; Sigma-Aldrich, Steinheim, Germany), for 72 h in the presence of the inhibitor, and their proliferation was measured in the BrdU incorporation assay as will be later described.
as §1, §2
Since we were not prejudiced towards any specific protein kinase, we used a biological assay for T cell proliferation. We tested our libraries for inhibition of proliferation of PBMC and Jurkat cells (Table 3). Cell proliferation was measured by BrdU uptake. […] PBMC cells were stimulated by a non-specific T cell mitogen, Concanavalin A (ConA). All of the compounds that were tested inhibited proliferation at micromolar or sub-micromolar concentrations.
For orientation: Incorporation of labelled thymidine or its analogues reports DNA synthesis.

The subject of another experiment is SLP-76. The experiment in a line: SLP-76 tyrosine phosphorylation in Jurkat cells, immunoprecipitation and western blot. Type of experiment: cell-based, human. The following applies: Jurkat cells treated 16 h, up to 1 μM. The procedure: Jurkat cells were washed in PBS containing Ca^2+ and Mg^2+ (Biological Industries, Beit Haemek), preheated to 37° C. for 15 min, and were either mock stimulated with PBS, or were stimulated for 1 minute with C305 (1:500). Cells were then collected and lysed at a concentration of 2×10^7 cells/ml in cold lysis buffer containing 1% NP-40, 10 mM Tris (pH 7.8), 150 mM NaCl, 1 mM phenylmethylsulfonyl fluoride (PMSF), 2 μg/ml pepstatin A, 1 μg/ml leupeptin, 10 mM sodium pyrophosphate, 0.4 mM EDTA, 0.4 mM sodium orthovanadate, and 50 mM NaF, 50 mM beta-glycerol phosphate pH 7.5 and 20 mM sodium pyrophosphate pH 7.5. After 20 min at 4° C., the lysates were cleared by centrifugation in a microfuge (Eppendorf, centrifuge 5427R) at 16,000×g for 10 min at 4° C. The supernatants were used directly for immunoprecipitation.
Western blots were prepared on nitrocellulose using standard techniques. Membranes were blocked in TBST buffer (10 mM Tris-HCl, pH 7.4 (TBS), 0.2% Tween 20, 170 mM NaCl) containing 5% low-fat milk, then probed overnight with the appropriate primary antibody. […]
Jurkat cells were treated with 2 for 16 h, and SLP-76 phosphorylation was measured by immunoprecipitation of SLP-76 protein followed by western blotting with an antibody to the phosphorylated tyrosines of the protein (FIG. 6A). […]
On the technique in general: A western blot detects proteins with antibodies after separation by electrophoresis.

Where two headings read alike, the source gives them in different places.

As to `COc1cc(-c2nc(Nc3ccc(C)cc3)c3ccccc3n2)cc(OC)c1OC` [Compound 2, N-p-tolyl-2-(3,4,5-trimethoxyphenyl)quinazolin-4-amine], the “effect on growth of non-hematopoietic cell types” value in experiment [1] is “slightly affected”. Further, the IC50 in the experiment on A375 (A375, non-stimulated, read-out: IC50 of non-stimulated cells) was roughly 800 nM; in the experiment on A375 (A375, serum (FCS 10%) activated, read-out: IC50 of stimulated cells), greater than 10000 nM; in the experiment on PBMC (PBMC, ConA 10 μg/ml, 72 h, read-out: IC50 ConA-stimulated proliferation of PBMC), roughly 100 nM; in the experiment on PBMC (PBMC, ODN2006 0.5 μg/ml or LPS 50 μg/ml, 72 h, read-out: IC50 ODN2006 and LPS-stimulated proliferation of PBMCs), roughly 500 nM; in the experiment with PBMC (ConA-stimulated PBMC, BrdU uptake, nM ± SD, read-out: IC50 PBMC proliferation inhibition) it was 70 nM; in the experiment on PBMC (PBMC, non-stimulated, BrdU uptake, read-out: IC50 of non-stimulated cells), 50 nM. Moreover, in the experiment on SLP-76, the “tyrosine phosphorylation of SLP-76” value was “reduced but not abolished”.

(Values after patent US8759363B2, “Quinazoline-based T cell proliferation inhibitors” (Yissum Research Development Company of the Hebrew …, priority 2010, dated 2014).)
